{"source": "patent US10584156B2", "about": "“Insulin analogues with a glucose-regulated conformational switch” (CASE WESTERN RESERVE UNIVERSITY, priority 2015, dated 2020)", "assay": "EDTA cobalt-sequestration assay of R6 insulin hexamer disassembly, with or without glucose", "format": "physicochemical", "conditions": "25 mM glucose vs none, pH 7.4, large excess of EDTA, phenol-stabilized Co^2+ R6 hexamer", "from_the_text": "Glucose-responsive rates of disassembly were investigated using a spectroscopy assay in which the visible absorption spectrum of a cobalt (Co^2+)-substituted insulin hexamer was obtained in the presence of phenol as an R6 hexamer.\nThis band arises front the unfilled d-shell electrons of the cobalt ion and is a specific signature of a tetrahedral coordination environment. Addition of a large excess of the chelating agent ethylene-diamine-tetra-acetic acid (EDTA) leads to progressive sequestration of the metal ion (in a colorless octahedral complex) and so provides a rapid and convenient probe of the kinetics of hexamer disassembly.\nTo this end, insulin analogues were made 0.6 mM in a buffer containing 50 mM Tris-HCl (pH 7.4), 50 mM phenol, 0.2 mM CoCl2, and 2 mM NaSCN in the absence of glucose or in the presence of 25 mM glucose. The sample pH was in each case 7.4, and samples were incubated overnight at room temperature prior to the studies to ensure that a conformational equilibrium was reached. Spectra (400-750 nm) were obtained to monitor tetrahedral Co^2+ coordination with its signature d-d absorption band at or near 574 nm. To determine the rate of Co^2+ release from the hexamers, metal-ion sequestration was initiated at 33° C. […] Attenuation of the 574-nm absorption band was monitored on a time scale of seconds to hours. […]", "data": [{"substance": "wild-type human insulin: Human insulin, A chain SEQ ID NO: 2 and B chain SEQ ID NO: 3", "values": [{"measurement": "difference in rate of hexamer disassembly (loss of R-state-specific d-d band) in presence versus absence of glucose", "result": "No difference was observed"}, {"measurement": "difference in rate of hexamer disassembly (loss of R-state-specific d-d band) in presence versus absence of glucose", "setting": "listed as Wild-type insulin", "result": "the same rate of loss"}]}]}
